The conditions of data set [1]: at 20° C.; cited from earlier work.
The conditions of data set [2]: mouse, in vivo, 4 mg/kg, 5 days.
Protocol: The brain and plasma levels of (TDF) after the administration of the composition to mice at the dose of 4 mg/kg by the oral (n=6) or the nasal route (n=6) over 5 days have been measured and are shown in the Table below:

Each structure is given as a SMILES string. Structures can show the parent of a compound that is named as a salt.

Take `CC(C)OC(=O)[C@H](C)N[P@](=O)(CO[C@H](C)Cn1cnc2c(N)ncnc21)Oc1ccccc1` [Tenofovir alafenamide]: the water solubility result in data set [1] is “about 4.86 mg/ml”.

`CC(C)OC(=O)OCOP(=O)(CO[C@H](C)Cn1cnc2c(N)ncnc21)OCOC(=O)OC(C)C` [Tenofovir disoproxil fumarate]: in data set [2], the “brain concentration, nasal versus oral administration” value is “more than 4 fold”.

The values above are taken from patent US20230255986A1, “PHARMACEUTICAL COMPOSITIONS FOR TREATING INFECTIONS BY A NEUROTROPIC VIRUS” (priority 2020, published 2023).
